This note sets out measurements from US12723063B2, “GIPR-agonist compounds” (Eli Lilly and Company, priority 2019, dated 2026).

*1 amine or outer side, *2 acyl side, *3 side chain or, on linkers, in order; H or OH if unused. Where a SMILES comes first, the peptide text is derived from it. Side-chain parts run from the residue outwards. [ ]: non-standard residue; d: D form. The star is where a group is joined. C20 diacid = O=C(O)CCCCCCCCCCCCCCCCCCC(=O)*; γGlu = O=C(O)[C@H](CCC(=O)[*:2])N[*:1]; αMeY = C[C@](N)(Cc1ccc(O)cc1)C(=O)O; 4Pal = N[C@@H](Cc1ccncc1)C(=O)O; αMeL = CC(C)C[C@](C)(N)C(=O)O; Iva = CC[C@](C)(N)C(=O)O; AEEA = NCCOCCOCC(=O)O; Aib = CC(C)(N)C(=O)O

Test in all cases: cAMP functional assay (HTRF) in HEK293 cells in presence of 0.1% casein
Common to all, as to assay type: cell-based
For orientation: In TR-FRET formats the signal depends on donor and acceptor labels being close together.

Assay [1] has as its target T1, human glucagon receptor (GcgR) (Homo sapiens, UniProt P47871).
T1 construct: expressed in transfected cells; host or cells: HEK293
The note with it: HEK293 cells expressing human GcgR, geometric mean, read-out: hGcgR cAMP Rel EC50 nM (SEM, n).

In assay [2] the target is T2, human glucose-dependent insulinotropic peptide receptor (GIPR) (Homo sapiens, UniProt P48546).
T2 construct: expressed in transfected cells; host or cells: HEK293
T2 sequence (P48546 22-466): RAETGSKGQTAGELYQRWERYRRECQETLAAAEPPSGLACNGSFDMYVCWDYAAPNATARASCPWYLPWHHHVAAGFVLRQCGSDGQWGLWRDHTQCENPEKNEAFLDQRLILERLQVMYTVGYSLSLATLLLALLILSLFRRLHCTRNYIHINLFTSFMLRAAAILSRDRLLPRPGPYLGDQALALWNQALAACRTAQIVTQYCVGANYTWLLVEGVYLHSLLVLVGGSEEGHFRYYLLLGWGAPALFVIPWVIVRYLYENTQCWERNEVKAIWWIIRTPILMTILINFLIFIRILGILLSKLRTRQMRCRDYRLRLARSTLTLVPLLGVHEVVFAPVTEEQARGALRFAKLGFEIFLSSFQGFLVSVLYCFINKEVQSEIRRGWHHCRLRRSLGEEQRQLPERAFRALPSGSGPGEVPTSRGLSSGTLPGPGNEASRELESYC
The note with it: HEK293 cells expressing human GIPR, geometric mean, read-out: hGIPR cAMP Rel EC50 nM (SEM, n).

For assay [3], the target named is T3, human GLP-1 receptor (GLP-1R) (Homo sapiens, UniProt P43220).
T3 construct: expressed in transfected cells; host or cells: HEK293
The note with it: HEK293 cells expressing human GLP-1R, geometric mean, read-out: hGLP1R cAMP Rel EC50 nM (SEM, n).

T3 sequence (P43220 24-463): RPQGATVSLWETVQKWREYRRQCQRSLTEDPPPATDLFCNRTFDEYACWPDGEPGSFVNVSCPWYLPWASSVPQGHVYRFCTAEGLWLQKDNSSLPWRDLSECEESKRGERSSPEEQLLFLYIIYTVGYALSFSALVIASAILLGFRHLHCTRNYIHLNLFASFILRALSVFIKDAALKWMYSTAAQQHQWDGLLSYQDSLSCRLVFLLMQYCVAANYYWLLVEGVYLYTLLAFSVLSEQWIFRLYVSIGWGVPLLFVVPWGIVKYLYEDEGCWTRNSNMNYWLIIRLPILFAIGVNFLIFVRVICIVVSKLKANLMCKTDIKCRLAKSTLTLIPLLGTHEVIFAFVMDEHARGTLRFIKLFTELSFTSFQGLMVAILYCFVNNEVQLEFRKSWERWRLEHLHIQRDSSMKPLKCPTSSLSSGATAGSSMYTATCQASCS
T1 sequence (P47871 26-477): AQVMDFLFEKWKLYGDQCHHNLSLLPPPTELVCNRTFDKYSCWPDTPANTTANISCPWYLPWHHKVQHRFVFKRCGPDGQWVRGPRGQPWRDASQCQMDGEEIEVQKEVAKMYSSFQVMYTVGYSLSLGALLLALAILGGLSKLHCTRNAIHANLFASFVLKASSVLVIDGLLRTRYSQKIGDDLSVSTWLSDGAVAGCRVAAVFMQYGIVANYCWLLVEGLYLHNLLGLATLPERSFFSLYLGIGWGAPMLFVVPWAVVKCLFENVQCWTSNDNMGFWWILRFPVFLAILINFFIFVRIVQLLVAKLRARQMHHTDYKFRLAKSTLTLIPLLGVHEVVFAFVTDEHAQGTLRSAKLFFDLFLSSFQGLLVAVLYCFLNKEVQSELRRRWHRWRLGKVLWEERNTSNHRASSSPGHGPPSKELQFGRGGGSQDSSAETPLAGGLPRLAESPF

`CC[C@H](C)[C@H](NC(=O)[C@H](CO)NC(=O)[C@H](Cc1ccc(O)cc1)NC(=O)[C@H](CC(=O)O)NC(=O)[C@H](CO)NC(=O)[C@@H](NC(=O)[C@](C)(CC)NC(=O)[C@@H](NC(=O)CNC(=O)[C@H](CCC(=O)O)NC(=O)C(C)(C)NC(=O)[C@@H](N)Cc1ccc(O)cc1)[C@@H](C)O)[C@@H](C)CC)C(=O)N[C@@](C)(CC(C)C)C(=O)N[C@@H](CC(C)C)C(=O)N[C@@H](CC(=O)O)C(=O)N[C@@H](CCCCN)C(=O)N[C@@H](CCCCNC(=O)COCCOCCNC(=O)COCCOCCNC(=O)CC[C@H](NC(=O)CCCCCCCCCCCCCCCCCCC(=O)O)C(=O)O)C(=O)N[C@@H](Cc1c[nH]cn1)C(=O)N[C@@H](CCC(N)=O)C(=O)NC(C)(C)C(=O)N[C@@H](CC(=O)O)C(=O)N[C@@H](Cc1ccccc1)C(=O)N[C@H](C(=O)N[C@@H](CCC(=O)O)C(=O)N[C@@H](Cc1ccncc1)C(=O)N[C@@H](CC(C)C)C(=O)N[C@@H](CC(C)C)C(=O)N[C@@H](CCC(=O)O)C(=O)N[C@@H](C)C(=O)NCC(=O)N1CCC[C@H]1C(=O)N[C@@H](CO)C(=O)N[C@@H](CO)C(=O)NCC(=O)N[C@@H](C)C(=O)N1CCC[C@H]1C(=O)N1CCC[C@H]1C(=O)N1CCC[C@H]1C(=O)N[C@@H](CO)C(N)=O)C(C)C` [Example 88] (H-Y[Aib]EGT[Iva]ISDYSI[αMeL]LDKK([AEEA-AEEA-γGlu-C20 diacid])HQ[Aib]DFVE[4Pal]LLEAGPSSGAPPPS-NH2): the EC50 (as a rule, the concentration that produces a half-maximal response) was 1670 nM in assay [1], 0.0031 nM in assay [2] and over 5000 nM in assay [3].

`CC[C@H](C)[C@H](NC(=O)[C@H](CC(C)C)NC(=O)[C@@H](NC(=O)CNC(=O)[C@H](CCC(=O)O)NC(=O)C(C)(C)NC(=O)[C@@H](N)Cc1ccc(O)cc1)[C@@H](C)O)C(=O)N[C@@H](CO)C(=O)N[C@@H](CC(=O)O)C(=O)N[C@@H](Cc1ccc(O)cc1)C(=O)N[C@@H](CO)C(=O)N[C@H](C(=O)N[C@@](C)(CC(C)C)C(=O)N[C@@H](CC(C)C)C(=O)N[C@@H](CC(=O)O)C(=O)N[C@@H](CCCCN)C(=O)N[C@@H](CCCCNC(=O)COCCOCCNC(=O)COCCOCCNC(=O)CC[C@H](NC(=O)CCCCCCCCCCCCCCCCCCC(=O)O)C(=O)O)C(=O)N[C@@H](Cc1c[nH]cn1)C(=O)N[C@@H](CCC(N)=O)C(=O)NC(C)(C)C(=O)N[C@@H](CC(=O)O)C(=O)N[C@@H](Cc1ccccc1)C(=O)N[C@H](C(=O)N[C@@H](CCC(=O)O)C(=O)N[C@@H](Cc1ccncc1)C(=O)N[C@@H](CC(C)C)C(=O)N[C@@H](CC(C)C)C(=O)N[C@@H](CCC(=O)O)C(=O)N[C@@H](C)C(=O)NCC(=O)N1CCC[C@H]1C(=O)N[C@@H](CO)C(=O)N[C@@H](CO)C(=O)NCC(=O)N[C@@H](C)C(=O)N1CCC[C@H]1C(=O)N1CCC[C@H]1C(=O)N1CCC[C@H]1C(=O)N[C@@H](CO)C(N)=O)C(C)C)[C@@H](C)CC` [Example 89] (H-Y[Aib]EGTLISDYSI[αMeL]LDKK([AEEA-AEEA-γGlu-C20 diacid])HQ[Aib]DFVE[4Pal]LLEAGPSSGAPPPS-NH2): the values for the EC50 in assay [1], in assay [2] and in assay [3] were over 5000 nM, 0.00687 nM and over 5000 nM, respectively.

In the case of `CC[C@H](C)[C@H](NC(=O)[C@H](Cc1ccccc1)NC(=O)[C@@H](NC(=O)CNC(=O)[C@H](CCC(=O)O)NC(=O)C(C)(C)NC(=O)[C@@H](N)Cc1ccc(O)cc1)[C@@H](C)O)C(=O)N[C@@H](CO)C(=O)N[C@@H](CC(=O)O)C(=O)N[C@@H](Cc1ccc(O)cc1)C(=O)N[C@@H](CO)C(=O)N[C@H](C(=O)N[C@@](C)(CC(C)C)C(=O)N[C@@H](CC(C)C)C(=O)N[C@@H](CC(=O)O)C(=O)N[C@@H](CCCCN)C(=O)N[C@@H](CCCCNC(=O)COCCOCCNC(=O)COCCOCCNC(=O)CC[C@H](NC(=O)CCCCCCCCCCCCCCCCCCC(=O)O)C(=O)O)C(=O)N[C@@H](Cc1c[nH]cn1)C(=O)N[C@@H](CCC(N)=O)C(=O)NC(C)(C)C(=O)N[C@@H](CC(=O)O)C(=O)N[C@@H](Cc1ccccc1)C(=O)N[C@H](C(=O)N[C@@H](CCC(=O)O)C(=O)N[C@@](C)(Cc1ccc(O)cc1)C(=O)N[C@@H](CC(C)C)C(=O)N[C@@H](CC(C)C)C(=O)N[C@@H](CCC(=O)O)C(=O)N[C@@H](C)C(=O)NCC(=O)N1CCC[C@H]1C(=O)N[C@@H](CO)C(=O)N[C@@H](CO)C(=O)NCC(=O)N[C@@H](C)C(=O)N1CCC[C@H]1C(=O)N1CCC[C@H]1C(=O)N1CCC[C@H]1C(=O)N[C@@H](CO)C(N)=O)C(C)C)[C@@H](C)CC` [Example 90] (H-Y[Aib]EGTFISDYSI[αMeL]LDKK([AEEA-AEEA-γGlu-C20 diacid])HQ[Aib]DFVE[αMeY]LLEAGPSSGAPPPS-NH2), the EC50 is over 5000 nM in assay [1], 0.0272 nM in assay [2] and over 5000 nM in assay [3].

Take `CC[C@H](C)[C@H](NC(=O)[C@H](Cc1ccccc1)NC(=O)[C@@H](NC(=O)CNC(=O)[C@H](CCC(=O)O)NC(=O)C(C)(C)NC(=O)[C@@H](N)Cc1ccc(O)cc1)[C@@H](C)O)C(=O)N[C@@H](CO)C(=O)N[C@@H](CC(=O)O)C(=O)N[C@@H](Cc1ccc(O)cc1)C(=O)N[C@@H](CO)C(=O)N[C@H](C(=O)N[C@@](C)(CC(C)C)C(=O)N[C@@H](CC(C)C)C(=O)N[C@@H](CC(=O)O)C(=O)N[C@@H](CCCCN)C(=O)N[C@@H](CCCCNC(=O)COCCOCCNC(=O)COCCOCCNC(=O)CC[C@H](NC(=O)CCCCCCCCCCCCCCCCCCC(=O)O)C(=O)O)C(=O)N[C@@H](Cc1c[nH]cn1)C(=O)N[C@@H](CCC(N)=O)C(=O)NC(C)(C)C(=O)N[C@@H](CC(=O)O)C(=O)N[C@@H](Cc1ccccc1)C(=O)N[C@H](C(=O)N[C@@H](CCC(=O)O)C(=O)N[C@@](C)(Cc1ccc(O)cc1)C(=O)N[C@@H](CC(C)C)C(=O)N[C@@H](CC(C)C)C(=O)N[C@@H](CCC(=O)O)C(=O)NCC(=O)NCC(=O)N1CCC[C@H]1C(=O)N[C@@H](CO)C(=O)N[C@@H](CO)C(=O)NCC(=O)N[C@@H](C)C(=O)N1CCC[C@H]1C(=O)N1CCC[C@H]1C(=O)N1CCC[C@H]1C(=O)N[C@@H](CO)C(N)=O)C(C)C)[C@@H](C)CC` [Example 91] (H-Y[Aib]EGTFISDYSI[αMeL]LDKK([AEEA-AEEA-γGlu-C20 diacid])HQ[Aib]DFVE[αMeY]LLEGGPSSGAPPPS-NH2): the EC50 in assay [1] amounted to 289 nM; in assay [2], 0.0321 nM; in assay [3], 530 nM.

Consider `CC[C@H](C)[C@H](NC(=O)[C@H](CCCCN)NC(=O)[C@H](CC(=O)O)NC(=O)[C@H](CC(C)C)NC(=O)[C@](C)(CC(C)C)NC(=O)[C@@H](NC(=O)[C@H](CO)NC(=O)[C@H](Cc1ccc(O)cc1)NC(=O)[C@H](CC(=O)O)NC(=O)[C@H](CO)NC(=O)[C@@H](NC(=O)[C@H](Cc1ccccc1)NC(=O)[C@@H](NC(=O)CNC(=O)[C@H](CCC(=O)O)NC(=O)C(C)(C)NC(=O)[C@@H](N)Cc1ccc(O)cc1)[C@@H](C)O)[C@@H](C)CC)[C@@H](C)CC)C(=O)N[C@@H](Cc1c[nH]cn1)C(=O)N[C@@H](CCC(N)=O)C(=O)NC(C)(C)C(=O)N[C@@H](CC(=O)O)C(=O)N[C@@H](Cc1ccccc1)C(=O)N[C@H](C(=O)N[C@@H](CCC(=O)O)C(=O)N[C@@H](Cc1ccc(O)cc1)C(=O)N[C@@H](CCCCNC(=O)COCCOCCNC(=O)COCCOCCNC(=O)CC[C@H](NC(=O)CCCCCCCCCCCCCCCCCCC(=O)O)C(=O)O)C(=O)N[C@@H](CC(C)C)C(=O)N[C@@H](CCC(=O)O)C(=O)N[C@@H](CCC(N)=O)C(=O)NCC(=O)N1CCC[C@H]1C(=O)N[C@@H](CO)C(=O)N[C@@H](CO)C(=O)NCC(=O)N[C@@H](C)C(=O)N1CCC[C@H]1C(=O)N1CCC[C@H]1C(=O)N1CCC[C@H]1C(=O)N[C@@H](CO)C(N)=O)C(C)C` [Example 92] (H-Y[Aib]EGTFISDYSI[αMeL]LDKIHQ[Aib]DFVEYK([AEEA-AEEA-γGlu-C20 diacid])LEQGPSSGAPPPS-NH2), for which the EC50 in assay [1] is over 5000 nM; in assay [2], 0.0191 nM; in assay [3], over 5000 nM.
